According to publication PMC7179958 (CPT: Pharmacometrics & Systems Pharmacology, 2020):

Assays:
[1] = Semimechanistic PBPK model simulation in simulated healthy volunteers; set-up: species or system human; conditions: PBPK model value
Description: Uptake is inhibited by the opposing drug in X 3 via the respective uptake concentration at half of the maximum uptake velocity (K m.up.X) shown as the inhibition constant (K I.up). Passive movement of drug into and out of the liver is through clearances P dif.X and P def.X, respectively. Both drugs are cleared through biliary excretion (CLbi.X) into the gallbladder (X 5), and into X 2 where they can be reabsorbed.
The micro‐rate constants for transporter‐mediated uptake and passive uptake were scaled to macro‐rate constants (see Table 2 ) and then empirically scaled up to the human body (83 kg, healthy adult; ^23 see Table 2 ).
The ODE PBPK model (see Figure 1 for schematic and Supplemental Material for the set of ODEs) was developed using desolve ^27 in R‐studio (v1.1.463, R‐Studio Inc., Boston, MA) running R‐project version 3.6.0 ^28 and was similar to that used for eltrombopag and rosuvastatin. ^5 All figures in this article were generated either within Inkscape (0.93, Inkscape.org, Boston, MA) or cowplot, ggplot2, ^29 , ^30 extrafont, ^31 and Cairo. ^32

[2] = Static R value for clinical TrDDI (FDA guidance); set-up: species or system human; conditions: eltrombopag victim, pitavastatin perpetrator; versus FDA cut‐offs
[3] = cited from earlier work
[4] = cited from earlier work; remark: listed apart in the source
[5] = eltrombopag only, single 75 mg, plasma

## CC1=NN(c2ccc(C)c(C)c2)C(=O)/C1=N\Nc1cccc(-c2cccc(C(=O)O)c2)c1O [eltrombopag, Eltrombopag]
[1]; Eqs. 10 and 11
  CLmet.X, metabolic clearance: 6.8 mL/min/liver
[1]; Eqs. 12 and 13
  CLbi.X, biliary clearance: 13 mL/min/liver
[2]
  R value, static model: below the cut‐offs
[3]; [5]
  AUC0−∞ (literature): 145 (101–208) h•µg/mL
  tmax (h): 2.5 (2–4) h
[3]; eltrombopag only, single 75 mg, plasma, mean (95% CI)
  Cmax: 10.9 (8.7–13.6) µg/mL
[3]; eltrombopag, used for I in.max
  K a, absorption rate constant: 0.0084 min⁻¹
[3]; eltrombopag
  F a F g, fraction absorbed multiplied by the intestinal availability: 0.5
  parent in urine: 0 parent in urine [ ^25 ]
[3]; eltrombopag, plasma
  V c.X, volume of the central compartment / volume of distribution: 2940 [ ^5 ] mL
[4]
  binding of eltrombopag to plasma proteins: 99.8%
  f u.pl.E, eltrombopag fraction unbound in the plasma: 0.002
[4]; eltrombopag
  blood:plasma ratio: 0.78
